Measured values as given in patent EP2363494A9, “Improvement of transfection results of non-viral gene delivery systems by influencing the congenital immune system” (Biontex Laboratories Gmbh, priority 2007, dated 2009).
Read-outs that look alike come from different tables or passages of the source.

Experiments:
HeLa-Luc Zellen [1] = assay: Trypan blue vitality determination after siRNA transfection in presence of TLR7/8 agonists (Beispiel 9); format: cell-based; conditions: Trypanblau after 48 h, Blindprobe 95,9
Protocol: Zunächst werden die ersten 5 Wells der ersten 3 Reihen einer 48 Well Platte mit jeweils 30 µl PBS gefüllt. Die Stocklösung der anti-Luciferase-siRNA und der non-specific-control-siRNA wird mit PBS auf eine Konzentration von 1 pmol/10 µl eingestellt. Anschließend werden jeweils 10 µl der Arbeitslösung der anti-Luciferase-siRNA in die ersten 3 Wells der der ersten drei Reihen der 48 Well Platte pipettiert. In die jeweils vierten Wells werden jeweils 10 µl der Arbeitslösung der non-specific-control-siRNA pipettiert. Das Metafectene Pro Reagenz wird mit PBS 1:300 verdünnt. Von dieser Verdünnung werden jeweils 20 µl in jedes Well mit siRNA gegeben. Anschließend werden die Lipoplexe für 20 Minuten bei Raumtemperatur inkubiert. Danach werden pro Well 250 µl Zellsuspension zugegeben. Analog wird eine zweite Platte bestückt.
In die ersten 2 Spalten der beiden 48 Well Platte werden 2 verschiedene Agonisten hinzugegeben. Dabei werden 3 verschiedene Arbeitskonzentrationen der Agonisten verwendet. Die Agonisten liegen lyophilisiert vor. Sie werden mit endotoxin-freiem Wasser zu Stocklösungen mit der Konzentration 100µg/ml gelöst. Die Stocklösungen werden jeweils 1:10 mit Wasser zu Arbeitslösungen verdünnt.
Von der ssRNA40/LyoVec-Arbeitslösung werden in B1 0,78 µl (=0,5 µg/ml Endkonzentration ssRNA40), in B2 15,5 µl (=5µg/ml) und in B3 31µl (=10µg/ml) pipettiert. Nach der Zugabe der Agonisten werden die beiden 48 Well Platten für 48 Stunden im CO2-Inkubator inkubiert.
Nach einer Inkubationszeit von 48 Stunden werden die Zellen einer Platte trypsiniert und mittels einer Neubauer-Zählkammer eine Vitalitätbestimmung mit Trypanblau für jedes Well durchgeführt.
Es wurden zwischen 40 und 70 Zellen ausgewertet.

HeLa-Luc Zellen [2] = assay: Luciferase assay after anti-Luciferase siRNA transfection in presence of TLR7/8 agonists (Beispiel 9); format: cell-based; conditions: 48 h
Protocol: Anschließend werden 120 µl Luciferase-Lysispuffer hinzugegeben.
Alle Messungen wurden dreifach durchgeführt.
Von der Imiquimod-Arbeitslösung werden in A1 0,78 µl (=0,25 µg/ml Endkonzentration), in A2 15,5 µl (=5µg/ml) und in A3 31 µl (=10µg/ml) pipettiert. Von der ssRNA40/LyoVec-Arbeitslösung werden in B1 0,78 µl (=0,5 µg/ml Endkonzentration ssRNA40), in B2 15,5 µl (=5µg/ml) und in B3 31µl (=10µg/ml) pipettiert. Nach der Zugabe der Agonisten werden die beiden 48 Well Platten für 48 Stunden im CO2-Inkubator inkubiert.

HeLa-Luc Zellen [3] = assay: Luciferase assay after anti-Luciferase siRNA transfection in presence of kinase inhibitors (Beispiel 8); conditions: 2 h before anti-Luciferase-siRNA/Metafectene Pro lipoplex
HeLa Zellen = conditions: Vorinkubationszeit 2h, inhibitor replaced and transfection repeated on day 3, Entwicklungszeit 10 min, 0µM well 0,63
Protocol: Die Effizienz der Transfektion wird mit dem β-Galaktosidase Assay Kit nach Vorgaben des Herstellers durchgeführt. Die Platten werden so lange entwickelt bis im Mikroplate-Reader eine Gelbfärbung mit einer Absorption von 1-2 gemessen wird und anschließend sofort gestoppt. Die Inkubationszeit wird anschließend notiert. Die Werte werden mit dem Mikroplate-Reader ausgelesen, und der Mittelwert gebildet.
1. Tag: Es werden HeLa Zellen in eine 48 Well Platte ausgesät.
1 mg Inhibitor wird in 100 µl DMSO gelöst (Stocklösung). Anschließend wird mit PBS 1:20 verdünnt (Arbeitslösung). Anschließend werden die Wells der 48 Well Platte mit folgenden Mengen Inhibitor versorgt:
Anschließend werden die Lipoplexe hergestellt. […] Jetzt werden beide Lösungen gemischt und 15 min inkubiert. Am Ende werden jeweils 50 µl der Lipoplexlösung in jedes Well gegeben.
Die Schritte Lipoplexherstellung und Transfektion werden ohne Inkubationszeit wiederholt.
Analog Beispiel 1 (mit halben Mengen)

## CC(C)Cn1cnc2c(N)nc3ccccc3c21 [Imiquimod, 1-(2-methylpropyl)-1H-imidazol[4,5-c]quinolin-4-amine]
HeLa-Luc Zellen [1]; Imiquimod 0,5µg/ml + anti-Luciferase-siRNA/Metafectene Pro
  Vitalität: 98,6%
HeLa-Luc Zellen [1]; Imiquimod 5µg/ml + anti-Luciferase-siRNA/Metafectene Pro
  Vitalität: 88,7%
HeLa-Luc Zellen [1]; Imiquimod 10µg/ml + anti-Luciferase-siRNA/Metafectene Pro
  Vitalität: 88,6%
HeLa-Luc Zellen [2]; Imiquimod 0,25 µg/ml Endkonzentration (0,5µg/ml in the 30th table) + anti-Luciferase-siRNA/Metafectene Pro, same plate row: siRNA alone 1604, non-specific control 3016, blank 2936
  Luciferase Assay, Mittelwert von 3x3: 676 RLU/µl Zellextrakt/sec
HeLa-Luc Zellen [2]; Imiquimod 5µg/ml + anti-Luciferase-siRNA/Metafectene Pro, same plate row: siRNA alone 1302, non-specific control 2753, blank 2673
  Luciferase Assay, Mittelwert von 3x3: 349 RLU/µl Zellextrakt/sec
HeLa-Luc Zellen [2]; Imiquimod 10µg/ml + anti-Luciferase-siRNA/Metafectene Pro, same plate row: siRNA alone 1481, non-specific control 2822, blank 2476
  Luciferase Assay, Mittelwert von 3x3: 116 RLU/µl Zellextrakt/sec

## C[S+]([O-])c1ccc(-c2nc(-c3ccncc3)c(-c3ccc(F)cc3)[nH]2)cc1 (stereo not shown) [SB203580]
HeLa-Luc Zellen [3]; SB203580 5µM, one transfection, 0µM 1027, non-specific-control-siRNA 2029, untransfected 2504
  Luciferase Assay, Mittelwert von 3x3 Messungen: 693 RLU/µl Zellextrakt/sec
HeLa-Luc Zellen [3]; SB203580 5µM, transfection repeated on day 3, 0µM 976, non-specific-control-siRNA 2135, untransfected 2531
  Luciferase Assay, Mittelwert von 3x3 Messungen: 696 RLU/µl Zellextrakt/sec
HeLa-Luc Zellen [3]; SB203580 10µM, one transfection, 0µM 1027, non-specific-control-siRNA 2029, untransfected 2504
  Luciferase Assay, Mittelwert von 3x3 Messungen: 747 RLU/µl Zellextrakt/sec
HeLa-Luc Zellen [3]; SB203580 10µM, transfection repeated on day 3, 0µM 976, non-specific-control-siRNA 2135, untransfected 2531
  Luciferase Assay, Mittelwert von 3x3 Messungen: 656 RLU/µl Zellextrakt/sec
HeLa-Luc Zellen [3]; SB203580 20µM, one transfection, 0µM 1027, non-specific-control-siRNA 2029, untransfected 2504
  Luciferase Assay, Mittelwert von 3x3 Messungen: 630 RLU/µl Zellextrakt/sec
HeLa-Luc Zellen [3]; SB203580 20µM, transfection repeated on day 3, 0µM 976, non-specific-control-siRNA 2135, untransfected 2531
  Luciferase Assay, Mittelwert von 3x3 Messungen: 617 RLU/µl Zellextrakt/sec
HeLa-Luc Zellen [3]; SB203580 30µM, one transfection, 0µM 1027, non-specific-control-siRNA 2029, untransfected 2504
  Luciferase Assay, Mittelwert von 3x3 Messungen: 671 RLU/µl Zellextrakt/sec
HeLa-Luc Zellen [3]; SB203580 30µM, transfection repeated on day 3, 0µM 976, non-specific-control-siRNA 2135, untransfected 2531
  Luciferase Assay, Mittelwert von 3x3 Messungen: 587 RLU/µl Zellextrakt/sec
HeLa-Luc Zellen [3]; SB203580 40µM, one transfection, 0µM 1027, non-specific-control-siRNA 2029, untransfected 2504
  Luciferase Assay, Mittelwert von 3x3 Messungen: 669 RLU/µl Zellextrakt/sec
HeLa-Luc Zellen [3]; SB203580 40µM, transfection repeated on day 3, 0µM 976, non-specific-control-siRNA 2135, untransfected 2531
  Luciferase Assay, Mittelwert von 3x3 Messungen: 610 RLU/µl Zellextrakt/sec

## N#CC(=C(/N)Sc1ccccc1N)/C(C#N)=C(/N)Sc1ccccc1N [U0126, 1,4-Diamino-2,3-dicyano-1,4-bis(o-amionophenylmercapto)butadiene]
HeLa Zellen; 5µM inhibitor
  Absorption β-Galaktosidase Assay, Mittelwert von 3 Messungen: 0,72
HeLa Zellen; 10µM inhibitor
  Absorption β-Galaktosidase Assay, Mittelwert von 3 Messungen: 0,92
HeLa Zellen; 25µM inhibitor
  Absorption β-Galaktosidase Assay, Mittelwert von 3 Messungen: 0,79
HeLa Zellen; 50µM inhibitor
  Absorption β-Galaktosidase Assay, Mittelwert von 3 Messungen: 0,90
HeLa Zellen; 75µM inhibitor
  Absorption β-Galaktosidase Assay, Mittelwert von 3 Messungen: 0,97
HeLa-Luc Zellen [3]; U0126 5µM, one transfection, 0µM 1157, non-specific-control-siRNA 1829, untransfected 1674
  Luciferase Assay, Mittelwert von 3x3 Messungen: 375 RLU/µl Zellextrakt/sec
HeLa-Luc Zellen [3]; U0126 5µM, transfection repeated on day 3, 0µM 1001, non-specific-control-siRNA 2290, untransfected 2249
  Luciferase Assay, Mittelwert von 3x3 Messungen: 641 RLU/µl Zellextrakt/sec
HeLa-Luc Zellen [3]; U0126 10µM, one transfection, 0µM 1157, non-specific-control-siRNA 1829, untransfected 1674
  Luciferase Assay, Mittelwert von 3x3 Messungen: 567 RLU/µl Zellextrakt/sec
HeLa-Luc Zellen [3]; U0126 10µM, transfection repeated on day 3, 0µM 1001, non-specific-control-siRNA 2290, untransfected 2249
  Luciferase Assay, Mittelwert von 3x3 Messungen: 162 RLU/µl Zellextrakt/sec
HeLa-Luc Zellen [3]; U0126 25µM, one transfection, 0µM 1157, non-specific-control-siRNA 1829, untransfected 1674
  Luciferase Assay, Mittelwert von 3x3 Messungen: 268 RLU/µl Zellextrakt/sec
HeLa-Luc Zellen [3]; U0126 25µM, transfection repeated on day 3, 0µM 1001, non-specific-control-siRNA 2290, untransfected 2249
  Luciferase Assay, Mittelwert von 3x3 Messungen: 179 RLU/µl Zellextrakt/sec
HeLa-Luc Zellen [3]; U0126 50µM, one transfection, 0µM 1157, non-specific-control-siRNA 1829, untransfected 1674
  Luciferase Assay, Mittelwert von 3x3 Messungen: 193 RLU/µl Zellextrakt/sec
HeLa-Luc Zellen [3]; U0126 50µM, transfection repeated on day 3, 0µM 1001, non-specific-control-siRNA 2290, untransfected 2249
  Luciferase Assay, Mittelwert von 3x3 Messungen: 171 RLU/µl Zellextrakt/sec
HeLa-Luc Zellen [3]; U0126 75µM, one transfection, 0µM 1157, non-specific-control-siRNA 1829, untransfected 1674
  Luciferase Assay, Mittelwert von 3x3 Messungen: 260 RLU/µl Zellextrakt/sec
HeLa-Luc Zellen [3]; U0126 75µM, transfection repeated on day 3, 0µM 1001, non-specific-control-siRNA 2290, untransfected 2249
  Luciferase Assay, Mittelwert von 3x3 Messungen: 103 RLU/µl Zellextrakt/sec
